Measurements as given in US7851449B2, “Peptide, pharmaceutical composition, and a method of treating microcirculation disorders” (Obschestvo S Ogranichennoi Otvetstvennostyu “SIA Peptides”, priority 2006, dated 2010).
Marks after values point to notes of the source that are not given here. Peptide text beside a SMILES is read from it.

Columns and labels:
[1] = test system: male guinea pigs; test: Chronic toxicity, 6 months daily intramuscular administration; peripheric blood morphology and biochemical indices; conditions: long-term administration
Description: (§1) The studies of chronic toxicity were conducted for 6 months, basing on the term of recommended clinical administration of the substance, on 96 male guinea pigs with body weight of 300-340 g. Experimental animals received the peptide daily, once a day, intramuscularly, for 6 months in the doses of 1 μg/kg, 0.1 mg/kg, 1 mg/kg in 0.5 ml of sterile 0.9% NaCl solution. Control animals received sterile 0.9% NaCl solution in the same volume and by the same schedule. Traditional methods were used for the evaluation of the following indices of the animals' peripheric blood: the quantity of erythrocytes, hemoglobin, reticulocytes, thrombocytes, leukocytes, leukocyte formula, erythrocyte sedimentation rate (ESR), erythrocyte resistance. Alongside with that, the content of total protein in the serum was identified using Lowry's method, as well as potassium and sodium content using the method of plasma spectrophotometry. Upon the completion of the experiment pathomorphologic studies of animal brain and spinal cord, spinal cord ganglia, thyroid gland, parathyroid glands, adrenal glands, testis, pituitary body, heart, lungs, aorta, liver, kidneys, urinary bladder, pancreas, stomach, small intestine, large intestine, thymus, spleen, lymph nodes and bone marrow were performed.

[2] = test system: vascular wall explants; test: Development of vascular wall explants (area index); format: cell-based, Wistar rats
Description: The experiments were conducted on 32 fragments of vascular wall from the peripheral artery of Wistar rats with body weight of 150-200 g. Nutritional medium for explants cultivation consisted of 35% Eagle's solution, 25% calf fetal serum, 35% Hanx solution, 5% chicken embryonic extract, with the addition of glucose (0.6%), insulin (0,5 units/ml), penicillin (100 units/ml), glutamine (2 mM). […] Peptide H-Lys-Glu-Asp-OH was added into the medium, in the concentration of 1, 10, 100 and 200 ng/ml.
Area index (AI), i.e. the ratio of total explant area together with the growth zone to the initial area of vascular wall fragment served as the criterion of biologic activity. AI values were expressed in percent, control AI values being considered as 100%.

[3] = test system: white mongrel male rats; test: Sub-acute toxicity, 90 days daily intramuscular administration; format: in vivo; conditions: daily i.m. 90 days, doses exceeding the therapeutic one by 100-1000 times
Description: The study of sub-acute toxicity was performed on 60 white mongrel male rats with body weight of 160-240 g. […] Morphology and properties of the animals' peripheral blood were studied before the administration of the substance, as well as on the 30th, 60th and 90th day after the beginning of the administration. Upon completion of the experiment biochemical and coagulologic indices of the blood were also evaluated.

[4] = test system: rats with experimental parodontitis; test: Microcirculation in rats with experimental parodontitis (gingiva biomicroscopy, laser dopplerography); format: in vivo; design: capillaries density per area unit: unit not given here; conditions: for diameter of the capillaries: in µm
Description: The experiments were conducted on 45 white mongrel male and female rats with body weight of 180-200 g. The model of light parodontitis was induced by the method of differentiated feeding of rats with standard granulated PK-120 forage for 1.5 months.
The animals were divided into 3 groups 15 rats in each: the animals of the first group, suffering from parodontitis didn't receive any treatment, rats in the second group suffering from experimental parodontitis were injected with 0.1 ml of sterile 0.9% NaCl solution into the mucous of the gingiva transitional fold (control); the animals of the third group with experimental parodontitis were subjected to a daily single injection of H-Lys-Glu-Asp-OH peptide in the dose of 2 μg in the 0.1 ml of sterile 0,9% NaCl solution into the mucous gingiva transitional fold with simultaneous rubbing in of peptide solution for 10 days.
During all experiments there was conducted a biomicroscopy of mucous membrane of the rats gingiva under nembutal anaesthesia with usage of contact object lenses and estimated the blood flow rate in capillaries by means of laser capillary blood flow analyzer LAKK-01. The studies were conducted in 3 areas of the gingiva, in the free gingiva, attached gingiva and transitional fold in case of 100 magnification. Clinical signs of the parodontitis were evaluated visually.

[5] = test system: male guinea pigs; conditions: in vivo
Description: as §1

[6] = test system: patients with purpura senilis; test: Hemostasis indices and Hess test in patients with purpura senilis; format: in vivo
Description: The study was conducted on 23 patients aged 70-82, suffering from purpura senilis, who complained of frequent spontaneous hemorrhages on the face, neck, forearms and hands. The patients reported progressive development of the disease.
The patients were randomly divided into two groups. The main group consisted of 12 patients, who were injected with pharmaceutical composition, containing peptide H-Lys-Glu-Asp-OH as its active base, in the dose of 100 μg in 1.0 ml of physiological solution daily intramuscularly for 10 days. Control group consisted of 11 patients, injected with sterile physiological solution following the same scheme.
Complains of the patients were analyzed in dynamics, also there were conducted general blood and urine tests, blood biochemical test. In order to study hemostasis there were made blood coagulogramm and Hess test with a tourniquet.

[7] = test system: skin capillaries of patients with hypovitaminosis; test: Skin capillary resistance in patients with hypovitaminosis (Rumpel-Leede-Konchalovskiy cuff test); format: in vivo
Description: The study was conducted on 25 patients aged 19-35, reporting signs of hypovitaminosis in spring. The patients were randomly divided into 2 groups.
The patients of the main group were divided into three sub-groups depending on the hypovitaminosis severity. Patients suffering from the severe hypovitaminosis were subjected to a daily single intramuscular injection of pharmaceutical composition containing H-Lys-Glu-Asp-OH peptide as its active base, in the dose of 5.0 mg in 1.0 ml of sterile 0.9% NaCl solution for 10 days; patients with moderately sever hypovitaminosis—in the dose of 100.0 μg, and patients with mild signs of hypovitaminosis—in the dose of 1.0 μg.
Control group consisted of 18 patients, subjected to an injection of physiological solution following the same scheme. Both groups received only balanced vitamin containing diet.
The estimation of the H-Lys-Glu-Asp-OH peptide effect on resistance of skin capillaries was conducted by means of Rumpel-Leede-Konchalovskiy capillary fragility test. A blood-pressure cuff was applied to the upper part of the arm of the patients. Then there was maintained pressure up to 200 mmHg for 3 minutes. Skin capillary resistance was evaluated on the area of the dosed load on skin capillaries (under the cuff). Hemorrhages were counted with a help of the magnifying glass.
Skin capillary resistance was graded according to the five-point scale: […]

NCCCCC(N)C(=O)NC(CCC(=O)O)C(=O)NC(CC(=O)O)C(=O)O (stereo not drawn) [H-Lys-Glu-Asp-OH, lysyl-glutamyl-asparagine acid] (H-Lys-Glu-Asp-OH; configuration not given here)
pathologic alterations (general status, blood indices, organ morphology, cardiovascular, respiratory, liver and kidney functions) [1]: no pathologic alterations
Area index (AI) growth as compared to the control AI ([2]; 100 ng/ml, 3rd day of cultivation, statistically significant): 24%
effect on vascular wall explants after longer cultivation ([2]; 7 days of cultivating, same concentrations): same stimulating effect
side effects in long-term administration (subacute toxicity) [3]: absence of any side effects
biomicroscopy of gingival mucous membrane ([4]; attached gingiva and transitional fold, 2 μg daily for 10 days): complete correction of the microcirculation
index of microcirculation (IM) ([4]; attached gingiva, 2 μg daily for 10 days, NaCl control 0.63±0.04): 0.22±0.05
diameter of the capillaries ([4]; attached gingiva, 2 μg daily for 10 days, NaCl control 9.8±0.35): 7.8±0.20
blood flow rate (laser dopplerography) ([4]; attached gingiva, 2 μg daily for 10 days, NaCl control 17±0.7): 20±1.1 conv. units
capillaries density per area unit ([4]; average of gingiva parts, 2 μg daily for 10 days, norm 29.3±2.3, NaCl control 30±1.5): 34±2.7
diameter of the capillaries ([4]; free gingiva, 2 μg daily for 10 days, NaCl control 12.3±0.36 (μm printed only)): 8.2±0.1
blood flow rate (laser dopplerography) ([4]; free gingiva, 2 μg daily for 10 days, norm 18±1.3, NaCl control 15±1.5): 20±0.9 conv. units
index of microcirculation (IM) ([4]; free gingiva, 2 μg daily into gingiva for 10 days, normal 0.21±0.30, NaCl control 0.75±0.03): 0.29±0.15
index of microcirculation (IM) ([4]; transitional fold, 2 μg daily for 10 days, NaCl control 0.39±0.02): 0.20±0.18
diameter of the capillaries ([4]; transitional fold, 2 μg daily for 10 days, NaCl control 9.1±0.09): 6.57±0.1
blood flow rate (laser dopplerography) ([4]; transitional fold, 2 μg daily for 10 days, NaCl control 19±1.2): 19±2.3 conv. units
side effects in long-term administration (chronic toxicity) ([5]; guinea pig): absence of any side effects
changes in guinea pig blood morphology and biochemical indices [5]: no statistically significant changes
Ethanol test ([6]; 100 μg daily i.m. 10 days, healthy 0, control 43.8): 14.3** % of the positive cases
Fibrinogen ([6]; 100 μg daily i.m. 10 days, healthy 3.2 ± 0.4, control 2.9 ± 0.1): 2.5 ± 0.1 g/L
Prothrombin time ([6]; 100 μg daily i.m. 10 days, healthy 12.5 ± 0.1, control 12.4 ± 0.4): 13.3 ± 0.1 s
Thrombin time ([6]; 100 μg daily i.m. 10 days, healthy 18.2 ± 0.6, control 16.0 ± 0.2): 17.1 ± 0.2 c
Activated partial thromboplastin time ([6]; 100 μg daily i.m. 10 days, healthy 32.3 ± 2.1, control 48.0 ± 1.3): 58.9 ± 0.7 s
Euglobulin fibrinolysis ([6]; 100 μg daily i.m. 10 days, healthy 150.0 ± 6.8, control 163.5 ± 5.0): 156.2 ± 3.9 min
Time of recalcification ([6]; 100 μg daily i.m. 10 days, healthy 178.0 ± 14.0, control 147.3 ± 4.2): 164.2 ± 2.4
Hess test (vascular walls durability) ([6]; after administration of the pharmaceutical composition): reduction in the number of hemorrhages
Cuff test indices ([7]; After administration, daily i.m. 1.0 μg, 100.0 μg or 5.0 mg by severity, 10 days, P < 0.05 vs before): II* (from 6 to 15)
Cuff test indices ([7]; Before administration (baseline of the peptide group)): III-IV
number of skin hemorrhages ([7]; before treatment, patients of both groups): 30-47
number of skin hemorrhages ([7]; main group after the treatment, control group unchanged): 6-8
